Experiment [1] has as its target human STING (Homo sapiens, UniProt Q86WV6). Briefly: Fluorescence Thermal Shift assay. It counts as binding. The conditions noted are these: 50 μM compound; STING 0.1 mg/ml; 20 minutes preincubation; read-out: [hSTING] FTS, ΔTm [° C.] for 50 μM. As to the method:
Fluorescence Thermal Shift Assay Compounds of the present invention were tested for binding to human STING in Fluorescence Thermal Shift assay. STING was preincubated with the compounds for 20 minutes in 50 mM Hepes, 150 mM NaCl, pH 7.5 in 16 μl volume, following by adding 4 μl of SyproOrange dye dilution (ThermoFisher, cat no. S-6651). Final STING concentration was 0.1 mg/ml. Thermal unfolding was performed in Real-Time PCR QuantStudio 6 Flex System (Applied Biosystems), from 25 to 99° C., with continuous ramp mode and ramp rate 0.033° C./s. The data were analyzed using Protein Thermal Shift Software (ThermoFisher). […] For example, ΔTm [° C.] of FTS assay for following examples are: […]

The test system of experiment [2] is interferon regulatory factor (IRF) pathway in THP-1 dual cells. Nature of the experiment: THP-1 Dual Reporter Assay, IRF pathway (luciferase reporter). It counts as cell-based. The conditions noted are these: Homo sapiens, THP1-Dual, 18 h of stimulation, luminescence. As to the method:
(§1) THP-1 Dual Reporter Assay
(§2) Compounds of the present invention were tested for their activity using THP-1 dual cells (Invivogen, cat no. thpd-nfis) allowing for simultaneous study of NF-κB pathway and the interferon regulatory factor (IRF) pathway. THP-1 dual cells contain luciferase reporter gene under the control of an ISG54 (interferon-stimulated gene) minimal promoter in conjunction with five interferon-stimulated response elements and a secreted embryonic alkaline phosphatase reporter gene under the control an IFN (interferon)-β minimal promoter fused to five copies of the NF-κB consensus transcriptional response element with three copies of the c-Rel binding site. Following 18 h of stimulation with STING agonist, medium was collected and transferred onto fresh cell culture plate. To verify activity of the IRF pathway, luminescence activity was measured with standard laboratory plate reader immediately after addition 10 μl of the medium to 50 μl of luminescence reagent (Invivogen, cat. No. rep-qlc2). To verify activity of NF-κB pathway, 20 μl of the medium was mixed with 80 μl of a detection medium (Invivogen, cat. No. rep-qb2) and incubated for 2 hours at 37° C. in a humidified atmosphere containing 5% CO2. Next, absorbance at 630 nm was recorded using standard laboratory plate reader.
For orientation: A reporter such as luciferase makes a cellular process visible.

Experiment [3] has as its system NF-κB pathway in THP-1 dual cells. Nature of the experiment: THP-1 Dual Reporter Assay, NF-κB pathway (SEAP reporter). It counts as cell-based. The conditions noted are these: Homo sapiens, THP1-Dual, 18 h of stimulation, absorbance at 630 nm, read-out: THP1 Dual EC50 (μM) NFkB. How it is done:
as §1, §2

Bounds are passed on as bounds.

Sequence of human STING (Q86WV6 whole entry H232R): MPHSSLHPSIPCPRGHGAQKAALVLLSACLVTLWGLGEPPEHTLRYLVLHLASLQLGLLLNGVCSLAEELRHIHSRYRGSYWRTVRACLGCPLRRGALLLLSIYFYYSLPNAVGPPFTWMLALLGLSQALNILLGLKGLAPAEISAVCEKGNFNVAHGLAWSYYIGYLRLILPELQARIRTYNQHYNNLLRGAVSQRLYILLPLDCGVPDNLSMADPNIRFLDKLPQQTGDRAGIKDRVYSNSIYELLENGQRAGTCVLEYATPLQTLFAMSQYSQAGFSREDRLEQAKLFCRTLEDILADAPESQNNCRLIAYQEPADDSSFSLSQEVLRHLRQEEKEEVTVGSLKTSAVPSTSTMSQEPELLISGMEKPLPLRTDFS

The ΔTm is the change in melting temperature against a reference sample. The term EC50 denotes the concentration that produces a half-maximal response. For `O=c1c(CN(CCCCn2ccnc2)Cc2ccncc2)coc2ccccc12` [Example 1, 3-({[4-(1H-imidazol-1-yl)butyl](pyridin-4-ylmethyl)amino}methyl)-4H-chromen-4-one], in experiment [1], the ΔTm at 50 µM was under 2.5 °C. In addition, the EC50 is 10 to 20 µM in experiment [2] and at least 20 µM in experiment [3].
With `O=c1c(CN(CCCn2cccc2)Cc2ccncc2)coc2ccccc12` [Example 2, 3-({[(pyridin-4-yl)methyl][3-(1H-pyrrol-1-yl)propyl]amino}methyl)-4H-chromen-4-one], the ΔTm at 50 µM in experiment [1] was under 2.5 °C. Further, the EC50 in experiment [2] is 10 to 20 µM; in experiment [3], at least 20 µM.
As to `O=c1c(CN(CCCn2cccn2)Cc2ccncc2)coc2ccccc12` [Example 3, 3-({[3-(1H-pyrazol-1-yl)propyl](pyridin-4-ylmethyl)amino}methyl)-4H-chromen-4-one], the ΔTm at 50 µM in experiment [1] is under 2.5 °C. The EC50 in experiment [2] and in experiment [3] was at least 20 µM in each case.
Regarding `O=c1c(CN(CCCn2ccnn2)Cc2ccncc2)coc2ccccc12` [Example 4, 3-{[(pyridin-4-ylmethyl)[3-(1H-1,2,3-triazol-1-yl)propyl]amino]methyl}-4H-chromen-4-one], in experiment [1], the ΔTm at 50 µM was under 2.5 °C. Moreover, the EC50 in experiment [2] and in experiment [3] was at least 20 µM throughout.
Consider `Cc1ccc2c(=O)c(CN(CCCn3ccnc3)Cc3ccncc3)coc2c1C` [Example 5, 3-({[3-(1H-imidazol-1-yl)propyl](pyridin-4-ylmethyl)amino}methyl)-7,8-dimethyl-4H-chromen-4-one], for which the ΔTm at 50 µM in experiment [1] is over 2.5 °C. The EC50 in experiment [2] and in experiment [3] was at most 10 µM each time.
As for `O=c1c(CN(CCCc2ccccn2)Cc2ccncc2)coc2ccccc12` [Example 6, 3-({[3-(pyridin-2-yl)propyl][(pyridin-4-yl)methyl]amino}methyl)-4H-chromen-4-one], the thermal shift (ΔTm) at 50 µM in experiment [1] is under 2.5 °C. Besides, the EC50 in experiment [2] and in experiment [3] was at least 20 µM throughout.
Turning to `O=c1c(CN(CCCn2ccnc2)Cc2ccncc2)coc2c1ccc1ccccc12` [Example 7, 3-({[3-(1H-imidazol-1-yl)propyl](pyridin-4-ylmethyl)amino}methyl)-4H benzo[h]chromen-4-one], in experiment [1], the ΔTm at 50 µM is over 2.5 °C. In addition, the EC50 in experiment [2] and in experiment [3] was at most 10 µM in each case.
`O=C1CCCN1CCCN(Cc1ccncc1)Cc1coc2ccccc2c1=O` [Example 8, 1-(3-{[(4-oxo-4H-chromen-3-yl)methyl](pyridin-4-ylmethyl)amino}propyl)pyrrolidin-2-one]: the ΔTm at 50 µM in experiment [1] is under 2.5 °C. For the same compound, the EC50 in experiment [2] and in experiment [3] was at least 20 µM in each case.
Take `COc1ccc2c(=O)c(CN(CCCn3ccnc3)Cc3ccncc3)coc2c1` [Example 9, 3-({[3-(1H-imidazol-1-yl)propyl](pyridin-4-ylmethyl)amino}methyl)-7-methoxy-4H-chromen-4-one]: in experiment [1], the ΔTm at 50 µM is over 2.5 °C. Further, the EC50 in experiment [2] and in experiment [3] was at most 10 µM throughout.
Turning to `O=c1c(CN(CCCn2ccnc2)Cc2ccncc2)coc2cc(Br)ccc12` [Example 10, 7-bromo-3-({[3-(1H-imidazol-1-yl)propyl](pyridin-4 ylmethyl)amino}methyl)-4H-chromen-4-one], the ΔTm at 50 µM in experiment [1] was over 2.5 °C. The EC50 is at most 10 µM in experiment [2] and 10 to 20 µM in experiment [3].
As to `O=c1c(CN(CCCn2ccnc2)Cc2ccncc2)coc2cc(F)ccc12` [Example 11, 7-fluoro-3-({[3-(1H-imidazol-1-yl)propyl](pyridin-4-ylmethyl)amino}methyl)-4H-chromen-4-one], the ΔTm at 50 µM in experiment [1] is under 2.5 °C. For the same compound, the figures for the EC50 in experiment [2] and in experiment [3] were 10 to 20 µM and at least 20 µM, respectively.
Turning to `CN1CCN(c2ccc3c(=O)c(CN(CCCn4ccnc4)Cc4ccncc4)coc3c2)CC1` [Example 12, 3-({[3-(1H-imidazol-1-yl)propyl](pyridin-4-ylmethyl)amino}methyl)-7-(4-methylpiper-azin-1-yl)-4H-chromen-4-one], the ΔTm at 50 µM in experiment [1] is over 2.5 °C. The EC50 in experiment [2] is at most 10 µM; in experiment [3], 10 to 20 µM.
Regarding `O=c1c(CN(CCCn2ccnc2)Cc2ccncc2)coc2cc(OCc3ccccc3)ccc12` [Example 13, 7-(benzyloxy)-3-({[3-(1H-imidazol-1-yl)propyl](pyridin-4-ylmethyl)amino}methyl)-4H-chromen-4-one], the ΔTm at 50 µM in experiment [1] is over 2.5 °C. The EC50 in experiment [2] and in experiment [3] was at most 10 µM in each case.
`Cc1ccc2c(=O)c(CN(CCCn3ccnn3)Cc3ccncc3)coc2c1C` [Example 14, 7,8-dimethyl-3-{[(pyridin-4-ylmethyl)[3-(1H-1,2,3-triazol-1-yl)propyl]amino]methyl}-4H-chromen-4-one]: the ΔTm at 50 µM in experiment [1] was over 2.5 °C. The EC50 in experiment [2] and in experiment [3] was 10 to 20 µM in each case.
For `Cc1ccc2c(=O)c(CN(CCCn3cccc3)Cc3ccncc3)coc2c1C` [Example 15, 7,8-dimethyl-3-{[(pyridin-4-ylmethyl)[3-(1H-pyrrol-1-yl)propyl]amino]methyl}-4H-chromen-4-one], the ΔTm at 50 µM in experiment [1] is under 2.5 °C. For the same compound, the EC50 in experiment [2] and in experiment [3] was at least 20 µM throughout.
Consider `O=c1c(CN(CCCn2ccnc2)Cc2ccncc2)coc2cc(O)ccc12` [Example 16, 7-hydroxy-3-({[3-(1H-imidazol-1-yl)propyl](pyridin-4-ylmethyl)amino}methyl)-4H-chromen-4-one], for which, in experiment [1], the ΔTm at 50 µM is over 2.5 °C. Also, the EC50 is 10 to 20 µM in experiment [2] and at least 20 µM in experiment [3].
For the compound `O=c1c(CN(CCCn2cnc3ccccc32)Cc2ccncc2)coc2ccccc12` [Example 17, 3-({[3-(1H-1,3-benzodiazol-1-yl)propyl](pyridin-4-ylmethyl)amino}methyl)-4H-chromen-4-one], the ΔTm at 50 µM in experiment [1] is over 2.5 °C. Further, the figures for the EC50 in experiment [2] and in experiment [3] were at most 10 µM and 10 to 20 µM, respectively.
`COc1cc(CN(CCCn2ccnc2)Cc2coc3ccccc3c2=O)ccn1` [Example 18, 3-({[3-(1H-imidazol-1-yl)propyl][(2-methoxypyridin-4-yl)methyl]amino}methyl)-4H-chromen-4-one]: the ΔTm at 50 µM in experiment [1] is under 2.5 °C. Further, the EC50 in experiment [2] and in experiment [3] was at least 20 µM throughout.
Regarding `O=c1c(CN(CCCc2cccnc2)Cc2ccncc2)coc2ccccc12` [Example 19, 3-({[3-(pyridin-3-yl)propyl][(pyridin-4-yl)methyl]amino}methyl)-4H-chromen-4-one], the ΔTm at 50 µM in experiment [1] is over 2.5 °C. For the same compound, the EC50 in experiment [2] is at most 10 µM; in experiment [3] it was 10 to 20 µM.
For `O=c1c(CN(CCCn2ccnc2)Cc2ccncc2)coc2c3c(ccc12)CCCC3` [Example 20, 3-({[3-(1H-imidazol-1-yl)propyl](pyridin-4-ylmethyl)amino}methyl)-4H,7H,8H,9H,10-cyclohexa[h]chromen-4-one], in that order: under 2.5 °C, at most 10 µM and at most 10 µM.
As to `N#Cc1ccc2c(=O)c(CN(CCCn3ccnc3)Cc3ccncc3)coc2c1` [Example 24, 3-({[3-(1H-imidazol-1-yl)propyl][(pyridin-4-yl)methyl]amino}methyl)-4-oxo-4H-chromene-7-carbonitrile], the EC50 in experiment [2] and in experiment [3] was at least 20 µM each time.
In the case of `O=c1c(CN(CCCn2ccnc2)Cc2ccncc2)cnc2ccccn12` [Example 35, 3-({[3-(1H-imidazol-1-yl)propyl][(pyridin-4-yl)methyl]amino}methyl)-4H-pyrido[1,2-a]pyrimidin-4-one], the EC50 in experiment [2] and in experiment [3] was at least 20 µM throughout.
For `COc1cc(CN(CCCn2cnc3ccccc32)Cc2cnc3ccccn3c2=O)ccn1` [Example 86, 3-({[3-(1H-1,3-benzodiazol-1-yl)propyl][(2-methoxypyridin-4-yl)methyl]amino}methyl)-4H-pyrido[1,2-a]pyrimidin-4-one], the EC50 in experiment [2] and in experiment [3] was at least 20 µM throughout.
Take `COc1cc(CN(CCCn2cnc3ccccc32)Cc2c(C)oc3c(ccc4ccccc43)c2=O)ccn1` [Example 87, 3-({[3-(1H-1,3-benzodiazol-1-yl)propyl][(2-methoxypyridin-4-yl)methyl]amino}methyl)-2-methyl-4H-benzo[h]chromen-4-one]: the EC50 in experiment [2] and in experiment [3] was at least 20 µM in each case.
Take `COc1cc(CN(CCCc2cncc3[nH]ncc23)Cc2c(C)oc3cc(Br)c(F)cc3c2=O)ccn1` [Example 92, 7-bromo-6-fluoro-3-({[(2-methoxypyridin-4-yl)methyl](3-{1H-pyrazolo[3,4-c]pyridin-4-yl}propyl)amino}methyl)-2-methyl-4H-chromen-4-one]: the EC50 in experiment [2] and in experiment [3] was at least 20 µM in each case.

The values are drawn from patent US12162863B2, “Modulators of stimulator of interferon genes (STING)” (RYVU THERAPEUTICS S.A., priority 2018, dated 2024).
